Source: PMC8607422, “Development of a novel TLR8 agonist for cancer immunotherapy” (Molecular Biomedicine, 2020)

Key:
hTLR8 = target: T1, hTLR8 (Homo sapiens, UniProt Q9NR97); test: HEK-Blue hTLR8 SEAP reporter agonist assay; assay type: cell-based
T1 construct: host or cells: HEK-Blue hTLR8 (HEK293-derived, per own knowledge)
T1 sequence (Q9NR97 27-1041): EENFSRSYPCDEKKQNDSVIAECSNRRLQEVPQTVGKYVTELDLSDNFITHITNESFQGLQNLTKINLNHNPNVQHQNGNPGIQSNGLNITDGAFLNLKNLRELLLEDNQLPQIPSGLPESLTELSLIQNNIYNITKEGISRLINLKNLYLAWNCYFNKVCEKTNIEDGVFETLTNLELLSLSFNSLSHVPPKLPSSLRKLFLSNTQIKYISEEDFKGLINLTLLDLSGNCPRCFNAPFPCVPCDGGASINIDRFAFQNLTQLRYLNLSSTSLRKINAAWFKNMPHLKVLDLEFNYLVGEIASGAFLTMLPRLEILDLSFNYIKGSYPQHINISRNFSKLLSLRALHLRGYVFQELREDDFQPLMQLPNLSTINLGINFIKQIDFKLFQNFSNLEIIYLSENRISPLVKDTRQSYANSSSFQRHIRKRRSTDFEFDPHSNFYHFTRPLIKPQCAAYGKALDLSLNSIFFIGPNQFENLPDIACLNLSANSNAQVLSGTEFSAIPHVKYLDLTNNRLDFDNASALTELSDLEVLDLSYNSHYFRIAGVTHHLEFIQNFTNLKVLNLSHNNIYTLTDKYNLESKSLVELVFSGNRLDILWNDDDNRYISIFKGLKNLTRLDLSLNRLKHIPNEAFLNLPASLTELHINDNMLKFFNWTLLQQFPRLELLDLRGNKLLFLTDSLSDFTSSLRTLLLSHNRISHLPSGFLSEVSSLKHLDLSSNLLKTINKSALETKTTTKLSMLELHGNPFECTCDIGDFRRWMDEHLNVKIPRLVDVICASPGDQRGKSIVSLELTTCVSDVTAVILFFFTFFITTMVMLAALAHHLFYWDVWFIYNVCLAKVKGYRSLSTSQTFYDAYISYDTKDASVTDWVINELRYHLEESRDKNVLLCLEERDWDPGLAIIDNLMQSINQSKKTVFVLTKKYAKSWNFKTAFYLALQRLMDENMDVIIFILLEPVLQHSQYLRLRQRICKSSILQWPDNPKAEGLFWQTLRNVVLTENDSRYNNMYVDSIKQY
Text: HEK-Blue™ hTLR4, 7, 8 and 9 cell lines were purchased from InvivoGen (Hong Kong). The cells express the human TLR gene and NF-κB/AP-1-inducible SEAP (secreted embryonic alkaline phosphatase) reporter gene. SEAP levels produced upon TLR stimulation can be determined by QUANTI-Blue™. In the cell-based assay, the main reagents used were QUANTI-Blue™ (InvivoGen) and ATPlite 1 Step (Perkin Elmer). The main instruments used were the microplate reader SpectraMax 340PC (Molecular Device) and Envision (Perkin Elmer). […] The compounds were in 10 mM stock solution in DMSO and stored at − 20°C. […] DMSO was used as the negative control. […] The cells were cultured and treated with the compounds at 37°C, 5%CO2 for 24 h. After 24 h of incubation, 20 μl of the supernatant of each well was added to 180 μl of QUANTI-Blue™. The plates were incubated at 37°C for 1.5 h. After 1.5 h of incubation, the optical density was measured using the spectrophotometer at 650 nm in the microplate reader of SpectraMax 340PC. The cell viability of each well was determined using ATPlite 1 Step following the manufacturer’s instruction. The luminescence signal in each well of plates was measured in the microplate reader of Envision.

[1] = Cell viability (ATPlite 1 Step) cytotoxicity assay; assay type: cell-based; conditions: human, HEK-Blue hTLR7 and hTLR8 cells
Text: HEK-Blue™ hTLR4, 7, 8 and 9 cell lines were purchased from InvivoGen (Hong Kong). The cells express the human TLR gene and NF-κB/AP-1-inducible SEAP (secreted embryonic alkaline phosphatase) reporter gene. SEAP levels produced upon TLR stimulation can be determined by QUANTI-Blue™. In the cell-based assay, the main reagents used were QUANTI-Blue™ (InvivoGen) and ATPlite 1 Step (Perkin Elmer). The main instruments used were the microplate reader SpectraMax 340PC (Molecular Device) and Envision (Perkin Elmer). Motolimod and DN052 were synthesized in house. […] The compounds were in 10 mM stock solution in DMSO and stored at − 20°C. The compounds were serially diluted in the concentration range from 0.5 nM to 15 μM (up to 50 μM in the hTLR4, hTLR7 and hTLR9 assays) and added to 96-well plates. DMSO was used as the negative control. LPS-EK, R848, motolimod and ODN2006 were used as the positive control for TLR4, 7, 8 and 9, respectively. The cells were cultured and treated with the compounds at 37°C, 5%CO2 for 24 h. […] After 1.5 h of incubation, the optical density was measured using the spectrophotometer at 650 nm in the microplate reader of SpectraMax 340PC. The cell viability of each well was determined using ATPlite 1 Step following the manufacturer’s instruction. The luminescence signal in each well of plates was measured in the microplate reader of Envision.

Which EC50 (hTLR8; HEK-Blue hTLR8 cells, 24 h, SEAP, read-out: EC50 in hTLR8 agonist activity (TLR8 cell EC50)) does the source give for `CCCN(CCC)C(=O)C1=Cc2ccc(-c3ccc(C(=O)N4CCCC4)cc3)cc2N=C(N)C1` [Motolimod, motolimod] here?
The EC50 was 0.109 µM.

And the TLR8 selectivity (hTLR8; TLR8 over other TLR cell EC50)?
Its TLR8 selectivity is 182 fold.

And the CC50 at 24 h [1]?
Its CC50 at 24 h is over 50 µM.
